Measurements published in patent US6737383B1, “Herbicidal oxadiazolidines” (priority 1999, dated 2004).

Legend:
[1] = system: bedstraw; experiment: Test B pre/postemergence bedstraw; format: in vivo, Galium aparine
Method in brief: (§1)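 Response is a visual 0-to-10 score relative to untreated plants, where 0 means no effect and 10 means complete control, taken twelve to sixteen days after application. Treatments went onto soil at planting and onto foliage of 1- to 4-leaf plants, using a surfactant-containing non-phytotoxic solvent.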

[2] = system: surinam grass; experiment: Test B pre/postemergence surinam grass; format: in vivo, Brachiaria decumbens
Method in brief: as §1

[3] = system: cocklebur; experiment: Test B pre/postemergence cocklebur; format: in vivo, Xanthium strumarium
Method in brief: as §1

[4] = system: corn; experiment: Test B pre/postemergence corn; format: in vivo, Zea mays
Method in brief: as §1

[5] = system: crabgrass; experiment: Test B pre/postemergence crabgrass; format: in vivo, Digitaria sanguinalis
Method in brief: as §1

[6] = system: giant foxtail; experiment: Test B pre/postemergence giant foxtail; format: in vivo, Setaria faberii
Method in brief: as §1

[7] = system: morningglory; experiment: Test B pre/postemergence morningglory; format: in vivo, Ipomoea hederacea
Method in brief: as §1

[8] = system: pigweed; experiment: Test B pre/postemergence pigweed; format: in vivo, Amaranthus retroflexus
Method in brief: as §1

[9] = system: rape; experiment: Test B pre/postemergence rape; format: in vivo, Brassica napus
Method in brief: as §1

[10] = system: soybean; experiment: Test B pre/postemergence soybean; format: in vivo, Glycine max
Method in brief: as §1

[11] = system: sugar beet; experiment: Test B pre/postemergence sugar beet; format: in vivo, Beta vulgaris
Method in brief: as §1

[12] = system: velvetleaf; experiment: Test B pre/postemergence velvetleaf; format: in vivo, Abutilon theophrasti
Method in brief: as §1

[13] = system: wheat; experiment: Test B pre/postemergence wheat; format: in vivo, Triticum aestivum
Method in brief: as §1

[14] = system: purple nutsedge; experiment: Test B pre/postemergence purple nutsedge; format: in vivo, Cyperus rotundus
Method in brief: as §1

[15] = system: duck salad; experiment: Test B flood test duck salad; format: in vivo, Heteranthera limosa; settings: Pre-emergence
Method in brief: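 Plants were grown to the 2-leaf stage before treatment with test chemical, then held in a greenhouse for twelve to sixteen days. Injury was visually rated against untreated controls on a 0–10 scale, where 0 is no effect and 10 is complete control.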

[16] = Preemergence, Rate 62 g/ha, scale of 0 to 10 where 0 is no effect and 10 is complete control
[17] = Preemergence, Rate 250 g/ha, scale of 0 to 10 where 0 is no effect and 10 is complete control
[18] = Preemergence, Rate 500 g/ha, scale of 0 to 10 where 0 is no effect and 10 is complete control
[19] = Rate 62 g/ha, Postemergence, scale 0 to 10 (0 no effect, 10 complete control)
[20] = Rate 125 g/ha, Postemergence, scale of 0 to 10 where 0 is no effect and 10 is complete control
[21] = Rate 250 g/ha, Postemergence, scale of 0 to 10 where 0 is no effect and 10 is complete control
[22] = Rate 500 g/ha, Postemergence, scale 0 to 10, 0 no effect, 10 complete control

CCN(C(=O)n1oc(=O)n(C2CCCCC2)c1=O)C1CCCCC1 [Compound 308]
Bedstraw plant response rating [1, 16]: 0
Bedstraw plant response rating (0 to 10 scale) ([1]; Preemergence, Rate 125 g/ha): 0
Bedstraw plant response rating [1, 17]: 0
Bedstraw plant response rating [1, 18]: 0
Bedstraw plant response rating [1, 19]: 0
Bedstraw plant response rating [1, 20]: 0
Plant response rating, Bedstraw [1, 21]: 0
Bedstraw plant response rating [1, 22]: 0
B. signalgrass plant response rating [2, 16]: 0
B. signalgrass plant response rating (0 to 10 scale, 0 is no effect, 10 is complete control) ([2]; Preemergence, Rate 125 g/ha): 0
B. signalgrass plant response rating [2, 17]: 0
B. signalgrass plant response rating [2, 18]: 0
B. signalgrass plant response rating [2, 19]: 0
B. signalgrass plant response rating [2, 20]: 0
Plant response rating, B. signalgrass [2, 21]: 0
B. signalgrass plant response rating [2, 22]: 0
Cocklebur plant response rating [3, 16]: 0
Cocklebur plant response rating (0 to 10 scale) ([3]; Preemergence, Rate 125 g/ha): 0
Cocklebur plant response rating [3, 17]: 0
Cocklebur plant response rating [3, 18]: 0
Cocklebur plant response rating [3, 19]: 0
Cocklebur plant response rating [3, 20]: 0
Plant response rating, Cocklebur [3, 21]: 0
Cocklebur plant response rating [3, 22]: 0
Corn plant response rating [4, 16]: 0
Corn plant response rating (0 to 10 scale) ([4]; Preemergence, Rate 125 g/ha): 0
Corn plant response rating [4, 17]: 0
Corn plant response rating [4, 18]: 0
Corn plant response rating [4, 19]: 0
Corn plant response rating [4, 20]: 0
Plant response rating, Corn [4, 21]: 0
Corn plant response rating [4, 22]: 0
Crabgrass plant response rating [5, 16]: 0
Crabgrass plant response rating (0 to 10 scale) ([5]; Preemergence, Rate 125 g/ha): 0
Crabgrass plant response rating [5, 17]: 0
Crabgrass plant response rating [5, 18]: 0
Crabgrass plant response rating [5, 19]: 0
Crabgrass plant response rating [5, 20]: 0
Plant response rating, Crabgrass [5, 21]: 0
Giant foxtail plant response rating [6, 16]: 0
Giant foxtail plant response rating (0 to 10 scale) ([6]; Preemergence, Rate 125 g/ha): 0
Giant foxtail plant response rating [6, 17]: 0
Giant foxtail plant response rating [6, 18]: 0
Giant foxtail plant response rating [6, 19]: 0
Giant foxtail plant response rating [6, 20]: 0
Plant response rating, Giant foxtail [6, 21]: 0
Morningglory plant response rating [7, 16]: 0
Morningglory plant response rating (0 to 10 scale) ([7]; Preemergence, Rate 125 g/ha): 0
Morningglory plant response rating [7, 17]: 0
Morningglory plant response rating [7, 18]: 0
Morningglory plant response rating [7, 19]: 0
Morningglory plant response rating [7, 20]: 0
Plant response rating, Morningglory [7, 21]: 2
Redroot pigweed plant response rating [8, 16]: 0
Redroot pigweed plant response rating (0 to 10 scale) ([8]; Preemergence, Rate 125 g/ha): 0
Redroot pigweed plant response rating [8, 17]: 0
Redroot pigweed plant response rating [8, 18]: 0
Redroot pigweed plant response rating [8, 19]: 0
Redroot pigweed plant response rating [8, 20]: 0
Plant response rating, Redroot pigweed [8, 21]: 0
Rape plant response rating [9, 16]: 0
Rape plant response rating (0 to 10 scale) ([9]; Preemergence, Rate 125 g/ha): 0
Rape plant response rating [9, 17]: 0
Rape plant response rating [9, 18]: 0
Rape plant response rating [9, 19]: 0
Rape plant response rating [9, 20]: 0
Plant response rating, Rape [9, 21]: 0
Soybean plant response rating [10, 16]: 0
Soybean plant response rating (0 to 10 scale) ([10]; Preemergence, Rate 125 g/ha): 0
Soybean plant response rating [10, 17]: 0
Soybean plant response rating [10, 18]: 0
Soybean plant response rating [10, 19]: 1
Soybean plant response rating [10, 20]: 1
Plant response rating, Soybean [10, 21]: 1
Sugarbeets plant response rating [11, 16]: 0
Sugarbeets plant response rating (0 to 10 scale) ([11]; Preemergence, Rate 125 g/ha): 0
Sugarbeets plant response rating [11, 17]: 0
Sugarbeets plant response rating [11, 18]: 0
Sugarbeets plant response rating [11, 19]: 0
Sugarbeets plant response rating [11, 20]: 0
Plant response rating, Sugarbeets [11, 21]: 0
Velvetleaf plant response rating [12, 16]: 0
Velvetleaf plant response rating (0 to 10 scale) ([12]; Preemergence, Rate 125 g/ha): 0
Velvetleaf plant response rating [12, 17]: 0
Velvetleaf plant response rating [12, 18]: 0
Velvetleaf plant response rating [12, 19]: 0
Velvetleaf plant response rating [12, 20]: 0
Plant response rating, Velvetleaf [12, 21]: 0
Wheat plant response rating [13, 16]: 0
Wheat plant response rating (0 to 10 scale) ([13]; Preemergence, Rate 125 g/ha): 0
Wheat plant response rating [13, 17]: 0
Wheat plant response rating [13, 18]: 0
Wheat plant response rating [13, 19]: 0
Wheat plant response rating [13, 20]: 0
Plant response rating, Wheat [13, 21]: 0
Nutsedge plant response rating [14, 16]: 0
Nutsedge plant response rating (0 to 10 scale) ([14]; Preemergence, Rate 125 g/ha): 0
Nutsedge plant response rating [14, 17]: 0
Nutsedge plant response rating [14, 18]: 0
Nutsedge plant response rating [14, 19]: 0
Nutsedge plant response rating [14, 20]: 0
Plant response rating, Nutsedge [14, 21]: 0
Ducksalad plant response rating ([15]; Rate 1000 g/ha, scale 0 to 10 (0 no effect, 10 complete control)): 0
Ducksalad plant response rating ([15]; Rate 125 g/ha, flood test species, scale 0 to 10 where 0 is no effect and 10 is complete control): 0
Ducksalad plant response rating ([15]; Rate 250 g/ha, flood-test species, scale 0 to 10, 0 is no effect, 10 is complete control): 0
Ducksalad plant response rating ([15]; Rate 500 g/ha, flood test species, scale 0 to 10 (0 no effect, 10 complete control)): 0
